This note sets out measurements from patent publication US7794795B2, “Hybrid anti-fouling coating compositions and methods for preventing the fouling of surfaces subjected to a marine environment” (The Research Foundation of State University of New York, priority 2003, dated 2010).

Each structure is given as a SMILES string.

A short description of test [1]: Thiol peroxidase activity: oxidation of PhSH with H2O2, stopped-flow. The conditions noted are these: for k0, initial linear increase in absorbance: PhSH 1 × 10^−3 M, H2O2 3.75 × 10^−3 M, catalyst 1 × 10^−5 M, MeOH (5% CH2Cl2; 46% for 22), 276.8 K, 305 nm; for v0 (rel): relative to 23a = 1; for v0, initial rate of oxidation of PhSH: same conditions, k0 corrected for the uncatalyzed reaction. Here is the method: (§1) All stopped-flow experiments were performed on a SX18 Stopped-Flow Spectrometer (Applied Photophysics, Leatherhead, UK). The sample-handling unit was fitted with two drive syringes that are mounted inside a thermostatted-bath compartment, which allowed for variable temperature experimentation. The optical detection cell was set up in the 2-mm pathlength. First- and second-order curve fitting and rate constants used a Marquardt algorithm (Marquardt, J. Soc. Indust Appl. Mathematics, 11:431 et al. (1963), which is hereby incorporated by reference in its entirety) based on the routine Curfit (Bevington, Data Reduction and Error Analysis for the Physical Sciences, McGraw-Hill, New York (1969), which is hereby incorporated by reference in its entirety).
Stock solutions of 2.0×10^−3 M of catalyst in CH2Cl2 and 5.0×10^−2 M PhSH in CH2Cl2 were prepared. These were diluted with MeOH to give a 5% CH2Cl21MeOH solution of 2.0×10^−5 M telluride and 2.0×10^−3 PhSH. A stock solution of 7.50×10^−3 M H2O2 in MeOH was prepared. These two solutions were mixed in the stopped-flow spectrometer to give concentrations of 1.0×10^−5 M telluride, 1.0×10^−3 M PhSH, and 3.75×10^−3 M H2O2 and the increase in absorbance at 305 nm was measured. The concentration of H2O2 in the stock solution was determined from the absorbance at 240 nm (E=43.6 cm^−1 M^−1) (Riley et al., Endocrinology, 128:1749 et al. (1991); Zhao et al., Biochemistry, 40:10832 et al. (2001), which are hereby incorporated by reference in their entirety). The values in Table 1 are the average of 7-10 independent runs (± standard deviation).
In earlier work with dendrimeric organotelluride catalysts for the oxidation of halide salts with H2O2 (Francavilla et al., J. Am. Chem. Soc., 123:57 et al. (2001), which is hereby incorporated by reference in its entirety), a two-phase system of CH2Cl2 and pH-6 buffer was employed, which kept the catalysts and substrate in solution. In order to evaluate the catalysts in a homogeneous system, the method of Tomoda et al. (Iwaoka et al., J. Am. Chem. Soc., 116:2557 et al. (1994); Mugesh et al., J. Am. Chem. Soc., 123:839 et al. (2001), which are hereby incorporated by reference in their entirety) was employed to measure thiol peroxidase activity. In this procedure, thiophenol (PhSH) is oxidized to diphenyl disulfide (PhSSPh) using H2O2 as the oxidant. Catalytic activity was determined by the initial rates for the oxidation of PhSH (1.0×10^−3 M) with H2O2 (3.75×10^−3 M) in MeOH in the presence of a catalyst at a standard concentration of 1.0×10^−5 M.
A 5% CH2Cl2/MeOH solution of catalyst (9, 15, 20, 23, or 24 at 2.0×10^−5M) and PhSH (2.0×10^−3 M) was mixed with an equal volume of a 5% CH2Cl21MeOH solution of H2O2 (7.5×10^−3 M) in a stopped-flow spectrophotometer at 276.8±0.4 K to give final concentrations of […] catalyst, 1.0×10^−3 M PhSH, and 3.75×10^−3M H2O2. The rate of appearance of PhSSPh, with a molar extinction coefficient, ε, of […] at 305 nm (Mugesh et al., J. Am. Chem. Soc., 123:839 et al. (2001), which is hereby incorporated by reference in its entirety), was monitored at 305 nm. The 5% CH2Cl2 was added to keep the tellurides/oxidized tellurides in solution during the course of the reaction. For hexatellurides 22, the percentage of CH2Cl2 was increased to 46% (by volume) in both solutions to keep the dendrimers in solution during the time-course of the analysis.
A slow, uncatalyzed background reaction was observed upon mixing the two solutions in the stopped-flow spectrometer without added catalyst. Values of k0 were corrected for the uncatalyzed background reaction and converted to initial velocities, ν0, in units of […] min^−1 (Table 1). Values of ν0 as a function of the number of catalytic groups is plotted in FIG. 20.

Test [2] can be described thus: Oxidation of monotellurides with H2O2, stopped-flow, pseudo first-order. Particulars: for observed rate constant for oxidation: 1.03×10^−3 M telluride, 1.03×10^−2 M H2O2, 276.8 K, 5% CH2Cl2/MeOH; for second-order rate constant for oxidation: same conditions. The protocol: as §1
Stock solutions of 2.06×10^−3M telluride and 2.06×10^−2 M H2O2 in 5% CH2Cl2/MeOH were prepared. These two solutions were mixed in the stopped-flow spectrometer to give concentrations of 1.03×10^−3M telluride and 1.03×10^−2 M H2O2 and the increase in absorbance at 325 nm for 23a, 350 nm for 23b, and 352 nm for 24 was measured as a function of time for 7-10 independent runs (1 standard deviation).
The rates of oxidation of monotellurides 23 and 24 were followed in the stopped-flow spectrometer under pseudo first-order conditions. Final concentrations of 1.03×10^−3 M telluride and 1.03×10^−2 M H2O2 at 276.8±0.4 K gave observed rate constants for oxidation of (1.10±0.01)×10^−1 s^−1 for 23a, (3.62±0.02)×10^−1 s^−1 for 23b, and (4.5±0.4)×10^−1 for 24, which correspond to second-order rate constants of 10.7±0.1 M^−1 s^−1 for 23a, 35.1±0.2 M^−1 s^−1 for 23b, and 44±4 M^−1 s^−1 for 24.

For the compound `OCc1cc(OCCC[Te]c2ccccc2)cc(OCCC[Te]c2ccccc2)c1` [compound 9a, 3,5-Bis[3-(phenyltelluro)propyloxy]benzyl Alcohol], in test [1], the “k0, initial linear increase in absorbance” value (“k0, initial linear increase” below) is recorded as “(8.8 ± 0.5) × 10^−5 ΔA s^−1”; the “v0 (rel)” value was found to be 1.7; the “v0, initial rate of oxidation of PhSH” value is “(2.0 ± 0.1) × 10^1 μM min^−1”.
The matching figures for `CN(C)c1ccc([Te]CCCOc2cc(COc3cc(CO)cc(OCc4cc(OCCC[Te]c5ccc(N(C)C)cc5)cc(OCCC[Te]c5ccc(N(C)C)cc5)c4)c3)cc(OCCC[Te]c3ccc(N(C)C)cc3)c2)cc1` [compound 20b, 3,5-Bis(3,5-bis[3-(4-dimethylaminophenyltelluro)propyloxy]benzyloxy)benzyl Alcohol]: “(3.13 ± 0.05) × 10^−4 ΔA s^−1”, 6.3 and “(7.4 ± 0.1) × 10^1 μM min^−1”.
The matching figures for `CCCCCC[Te]CCCOc1cc(CO)cc(OCCC[Te]CCCCCC)c1OCCC[Te]CCCCCC` [compound 15c, 3,4,5-Tris[3-(n-hexyltelluro)propyloxy]benzyl Alcohol]: “(4.00 ± 0.05) × 10^−4 ΔA s^−1”, 7.9 and “(9.5 ± 0.1) × 10^1 μM min^−1”.
For the compound `OCc1cc(OCCC[Te]c2ccccc2)c(OCCC[Te]c2ccccc2)c(OCCC[Te]c2ccccc2)c1` [compound 15a, 3,4,5-Tris[3-(phenyltelluro)propyloxy]benzyl Alcohol], in test [1], the “k0, initial linear increase” value is “(1.14 ± 0.02) × 10^−4 ΔA s^−1”; the “v0 (rel)” value is listed as 2.2; the “v0, initial rate of oxidation of PhSH” value was “(2.66 ± 0.05) × 10^1 μM min^−1”.
The matching figures for `CCCCCC[Te]CCCOc1cc(CO)cc(OCCC[Te]CCCCCC)c1` [compound 9c, 3,5-Bis[3-(n-hexyltelluro)propyloxy]benzyl Alcohol]: “(2.90 ± 0.06) × 10^−4- ΔA s^−1”, 5.8 and “(6.9 ± 0.1) × 10^1 μM min^−1”.
As for `CN(C)c1ccc(CCCOc2cc(COc3ccc(C(C)(c4ccc(OCc5cc(OCCCc6ccc(N(C)C)cc6)cc(OCCCc6ccc(N(C)C)cc6)c5)cc4)c4ccc(OCc5cc(OCCCc6ccc(N(C)C)cc6)cc(OCCCc6ccc(N(C)C)cc6)c5)cc4)cc3)cc(OCCCc3ccc(N(C)C)cc3)c2)cc1` [22b, 1,1,1-Tris[4-(3,5-bis[3-(4-N,N-dimethylaminophenyl)propyloxy]benzyloxy)phenyl]ethane], in test [1], the “k0, initial linear increase” value is given as “(5.6 ± 0.1) × 10^−4 ΔA s^−1”; the “v0 (rel)” value came out at 11; the “v0, initial rate of oxidation of PhSH” value is listed as “(1.34 ± 0.02) × 10^2 μM min^−1”.
Take `OCc1cc(OCc2cc(OCCC[Te]c3ccccc3)cc(OCCC[Te]c3ccccc3)c2)cc(OCc2cc(OCCC[Te]c3ccccc3)cc(OCCC[Te]c3ccccc3)c2)c1` [compound 20a, 3,5-Bis(3,5-bis[3-(phenyltelluro)propyloxy]benzyloxy)benzyl Alcohol]: in test [1], the “k0, initial linear increase” value is “(1.81 ± 0.05) × 10^−4 ΔA s^−1”; the “v0 (rel)” value amounted to 3.6; the “v0, initial rate of oxidation of PhSH” value is “(4.3 ± 0.1) × 10^1 μM min^−1”.
For the compound `CN(C)c1ccc([Te]CCCOc2cc(CO)cc(OCCC[Te]c3ccc(N(C)C)cc3)c2OCCC[Te]c2ccc(N(C)C)cc2)cc1` [15b, 3,4,5-Tris[3-(4-dimethylaminophenyltelluro)propyloxy]benzyl Alcohol], in test [1], the “k0, initial linear increase” value is recorded as “(3.15 ± 0.03) × 10^−4 ΔA s^−1”; the “v0 (rel)” value is on record as 6.3; the “v0, initial rate of oxidation of PhSH” value was “(7.49 ± 0.07) × 10^1 μM min^−1”.
With `CCCCCC[Te]CCCOc1cc(COc2ccc(C(C)(c3ccc(OCc4cc(OCCC[Te]CCCCCC)cc(OCCC[Te]CCCCCC)c4)cc3)c3ccc(OCc4cc(OCCC[Te]CCCCCC)cc(OCCC[Te]CCCCCC)c4)cc3)cc2)cc(OCCC[Te]CCCCCC)c1` [22c, 1,1,1-Tris[4-(3,5-bis[3-(n-hexyltelluro)propyloxy]benzyloxy)phenyl]-ethane], in test [1], the “k0, initial linear increase” value is on record as “(1.30 ± 0.01) × 10^−3 ΔA s^−1” and the “v0 (rel)” value was found to be 26.
Consider `c1ccc(OCCC[Te]c2ccccc2)cc1` [compound 23a, 1-Phenoxy-3-(phenyltelluro)propane], for which, in test [1], the “k0, initial linear increase” value is listed as “(5.3 ± 0.4) × 10^−5 ΔA s^−1” and the “v0 (rel)” value was determined as 1. Moreover, in test [2], the “observed rate constant for oxidation” value is recorded as “(1.10±0.01)×10^−1 s^−1” and the “second-order rate constant for oxidation” value came out at 10.7 ± 0.1 M⁻¹ s⁻¹.
As to `CN(C)c1ccc([Te]CCCOc2cc(CO)cc(OCCC[Te]c3ccc(N(C)C)cc3)c2)cc1` [9b, 3,5-Bis[3-(4-dimethylaminophenyltelluro)propyloxy]benzyl Alcohol], in test [1], the “k0, initial linear increase” value was “(1.69 ± 0.05) × 10^−4 ΔA s^−1”; the “v0 (rel)” value amounted to 3.3; the “v0, initial rate of oxidation of PhSH” value is “(4.0 ± 0.1) × 10^1 μM min^−1”.
`CN(C)c1ccc([Te]CCCOc2ccccc2)cc1` [compound 23b, 1-phenoxy-3-[4-(N,N-dimethylamino)phenyltelluro]propane]: in test [1], the “k0, initial linear increase” value was “(1.06 ± 0.05) × 10^−4 ΔA s^−1”; the “v0 (rel)” value came out at 2.1; the “v0, initial rate of oxidation of PhSH” value is on record as “(2.5 ± 0.1) × 10^1 μM min^−1”. Besides, in test [2], the “observed rate constant for oxidation” value was “(3.62±0.02)×10^−1 s^−1” and the “second-order rate constant for oxidation” value was 35.1 ± 0.2 M⁻¹ s⁻¹.
As for `CCCCCC[Te]CCCOc1cc(COc2cc(CO)cc(OCc3cc(OCCC[Te]CCCCCC)cc(OCCC[Te]CCCCCC)c3)c2)cc(OCCC[Te]CCCCCC)c1` [20c, 3,5-Bis(3,5-bis[3-(n-hexyltelluro)propyloxy]benzyloxy)benzyl Alcohol], in test [1], the “k0, initial linear increase” value is “(5.47 ± 0.07) × 10^−4 ΔA s^−1”; the “v0 (rel)” value was found to be 11; the “v0, initial rate of oxidation of PhSH” value was “(1.31 ± 0.01) × 10^2 μM min^−1”.
Turning to `CCCCCC[Te]CCCCCC` [compound 24, Di-n-hexyltelluride, reference compound], in test [1], the “k0, initial linear increase” value is reported as “(1.53 ± 0.09) × 10^−4 ΔA s^−1”; the “v0 (rel)” value came to 3.0; the “v0, initial rate of oxidation of PhSH” value is “(3.6 ± 0.2) × 10^1 μM min^−1”. Also, in test [2], the “observed rate constant for oxidation” value was “(4.5±0.4)×10^−1 s^−1” and the “second-order rate constant for oxidation” value stood at 44 ± 4 M⁻¹ s⁻¹.
